The numbers were not newly measured in PMC4084622 (Journal of Medicinal Chemistry, 2014), which cites them from elsewhere.

The series relates to M. tuberculosis. The settings on record: M. tuberculosis H37Rv, Erdman, and drug-resistant strains; cited from earlier work.

The structures appear in SMILES notation.

Consider `CC(C)=CCC/C(C)=C/CNCCNC1C2CC3CC(C2)CC1C3` (stereo not shown) [compound 1, SQ109], for which the “minimum inhibitory concentration (MIC)” value is 0.7 to 1.56 µM.
